Laboratory results reported in patent US11253526B2, “Nanostructured formulations for the delivery of silibinin and other active ingredients for treating ocular diseases” (DISTRETTO TECNOLOGICO SICILIA MICRO E NANO SISTEMI …, priority 2014, dated 2022).
Where “and” joins values, the source holds several entries; their conditions need not be identical. Equal entries are not always repeated.

Experiments:
ARPE-19 cells [1] = test: LDH release, 50 μM FeSO4 for 5 hours then 20 h post-treatment; type: cell-based; details: then 20 hours with compound
Method: (§1) Then, the effects of the conjugated and empty system were tested using the compound FeSO4 as oxidative insult, with changes in the cellular redox status. Over 24 hours of incubation, the cells are pre-treated for 20 h and then exposed to insult with 50 μM FeSO4 for three hours [“Pretreatment” 20 h drug+3 h insult]. The viability test conducted to evaluate the toxicity and the ability of protection from damage of the carrier in question is to assess the release of LDH in the culture medium. […] In subsequent experiments, the effects of post-treatment with calixarene based compounds were tested. Therefore, cells were treated with 50 μM FeSO4 for 5 hours and incubated for 20 hours with the various compounds.

[2] = Degradation of curcumin in PBS and serum-free medium; type: physicochemical
cyclooxygenase 2 (COX-2) = test: Western blot, COX-2 level in LPS-stimulated J774 cells; type: cell-based; details: LPS 10 μg/mL for 24 hours, pre-treatment
Method: (§2) In particular, J774 cells were stimulated with lipopolysaccharide (LPS) at a concentration of 10 μg/mL for 24 hours, stimulation with LPS induces the activation of inflammatory processes such as NFκB nuclear translocation and cytokine production, if not also release of nitrites and nitrosative stress. The cell viability was then evaluated following stimulation with LPS (10 μg/mL for 24 hours) and 2-hour pretreatment of the delivery systems being studied at the different concentrations. […] The anti-inflammatory activity of the delivery systems was then evaluated through the Western Blot analysis. […] The NFκB activation involves the production of proteins and inflammatory mediators such as cyclooxygenase 2 (COX-2) and inducible nitric oxide synthase (iNOS) and consequent increase in the production of nitrites.

J774 macrophages = test: Cytotoxicity on J774 macrophages; type: cell-based
Method: (§3) The colloidal solutions of calixarene 1, calixarene loaded with active ingredient and active ingredient alone were tested for cytotoxicity: SIRC corneal cells (FIG. 11), J774 macrophages (FIG. 12) and ARPE retinal cells.

SIRC corneal cells = test: Cytotoxicity on SIRC corneal cells; type: cell-based; details: SIRC corneal (epithelial) cells
Method: as §3

ARPE-19 retinal cells = test: Biocompatibility / toxicity on ARPE-19 retinal cells; type: cell-based
Method: as §1, §3

J774 cells = test: Viability / anti-inflammatory activity in J774 cells stimulated with LPS; type: cell-based
Method: as §2

ARPE-19 cells [3] = test: LDH release, 20 h pretreatment then 50 μM FeSO4 insult; type: cell-based
Method: as §1

[4] = Average hydrodynamic diameter and polydispersity index by DLS / photo-correlation spectroscopy; type: physicochemical; details: DLS in PBS, pH 7.4; calixarene nanoaggregates
Method: The average diameter and the polydispersity index (PDI) of the SLN-A systems prepared were determined by photo-correlation spectroscopy (PCS) using a Zetasizer Nano ZSP (Malvern Instrument).
The average diameter and the polydispersity index (PDI) of the NLC-B systems coated with INU-EDA and chitosan prepared were determined by photo-correlation spectroscopy (PCS) using a Zetasizer Nano ZSP (Malvern Instrument).
(§4) The size distribution of micelles was determined through dynamic light scattering measurements using the Malvern Zetasizer Nano ZS. […] The aqueous solutions of micelles (2 mg/mL) were analyzed after filtration through cellulose membrane filters with 5 μm cut off. The average hydrodynamic diameter and the polydispersity index (PDI) were obtained using cumulative analyses of the correlation function. The zeta potential (mV) was calculated by the electrophoretic mobility and using the Smoluchowsky relation, assuming that K·a>>1 (where K and a are the Debye-Hückel parameter and the particle radius, respectively).
(§5) The average diameter, polydispersity index (PDI) and zeta potential of calixarene nanoparticles loaded and not with silibinin were measured using a Zetasizer Nano ZS-90 (Malvern Instrument), the reading was made at an angle of 90° with respect to the incident ray and analyzed in triplicate.

[5] = system: inducible nitric oxide synthase (iNOS); test: Western blot, iNOS level in LPS-stimulated J774 cells; type: cell-based; details: LPS 10 μg/mL for 24 hours, pre-treatment
Method: as §2

[6] = system: Uveitis induced in Lewis rats; test: Uveitis model induced by LPS endotoxin, topical administration; type: in vivo; details: 16 and 72 hours after LPS injection
Method: With the aim of verifying the effectiveness of the calixarene system loaded with the active ingredient to the eye site of interest, an experiment was conducted in vivo with an Uveitis model. Uveitis was induced in 160-180 g Lewis rats by single subcutaneous injection in the hind paw of 200 ìg of the LPS endotoxin from Salmonella Minnesota diluted in 0.2 mL PBS, pH 7.4. The control group received only 0.2 mL of PBS in the hind paw. […] The eyes were enucleated for histological and immunohistochemical analysis. The aqueous humor was also taken for protein dosing.

cathepsin D = test: Western blot of cathepsin D after FeSO4 insult and post-treatment; type: cell-based
Text: Cathepsin D is an intracellular aspartyl protease, synthesized in the endoplasmic reticulum as pre-pro-enzyme that is processed up to generate active fragments. According to the cellular environment in which it resides, it can induce or inhibit apoptosis through different mechanisms. The 48 kDa fragment is an active intermediate form from which two additional active fragments are generated; therefore, its reduction is associated with the activation of the proteolytic process, vice versa its increase is indicative of an inhibition of apoptosis. In the presence of oxidative stress, the activation of cathepsin D may activate caspase 8 which in turn activates caspase 3, leading to cell death (Regulatory role of cathepsin D in apoptosis, A. Minarowska et al., (2007) Folia Histochemica et Cytobiologica) (Caspase-8-mediated apoptosis induced by oxidative stress is independent of the intrinsic pathway and dependent on cathepsins H. K. Baumgartner et al., (2007) Am J Physiol Gastrointest Liver Physiol.).

[7] = Zeta potential measurement; type: physicochemical; details: in PBS, pH 7.4; calixarene nanoaggregates
Method: The zeta potential was measured according to the principles of the laser doppler velocimetry and of the light scattering analysis (M3-PALS technique) using a Zetasizer Nano ZSP (Malvern) with a He—Ne laser, power=4.0 mW, wavelength=633 nm.
as §4, §5

PARP-1 protein = test: Western blotting of PARP-1 after H2O2 and post-treatment; type: cell-based; details: samples treated with H2O2, post-treatment
Method: Lysates of retinal cells exposed to post-treatment with the INUC8PEG system, empty or conjugated with silibinin, were analyzed by western blotting for the expression of the PARP-1 protein, a poly (ADP-ribose) polymerase of 116 kDa involved in DNA repair in response to environmental stress (Calcium Overload Is A Critical Step In Programmed Necrosis Of Arpe-19 Cells Induced By High-Concentration H2O2 Guang-Yu Li et al., (2010) Biomedical And Environmental Sciences). In vivo and in vitro, PARP-1 is processed by Caspase 3 and Caspase 7 with the formation of a 24 kDa DNA-binding domain and an 89 kDa catalytic domain that participates in the apoptosis (Importance of Poly (ADP-ribose) Polymerase and Its Cleavage in Apoptosis F. J Oliver et al., (1998) J. Biol. Chem.).

[8] = cited from earlier work
[9] = 20 h incubation, cells not exposed to FeSO4
[10] = pre-treated 20 h, then FeSO4 (50 μM)

Compound	protection against insult (LDH release) (ARPE-19 cells [1])	levels of COX-2 (cyclooxygenase 2 (COX-2))	release of LDH (ARPE-19 cells [3]; [9])	release of LDH (ARPE-19 cells [3]; [10])	levels of iNOS [5]	ocular inflammation / histologic damage [6]	protein levels in the aqueous humor [6]	expression levels of cathepsin D (48 kDa band) (cathepsin D)	further results
CCCCCCCCCCCCOc1c2cc(C[N+](C)(C)CCO)cc1Cc1cc(C[N+](C)(C)CCO)cc(c1OCCCCCCCCCCCC)Cc1cc(C[N+](C)(C)CCO)cc(c1OCCCCCCCCCCCC)Cc1cc(C[N+](C)(C)CCO)cc(c1OCCCCCCCCCCCC)C2 [compound 1]	individually able to protect from the redox status alteration	reduces significantly and in a dose-dependent manner	do not significantly change the release of LDH	an effect not observed	reduces significantly and in a dose-dependent manner	the degree of inflammation was not reduced	did not result in a reduction in the protein levels	increases the expression levels of cathepsin D	protective effect towards curcumin ([2]; PBS as a solvent): protects curcumin; biocompatibility (J774 macrophages): good biocompatibility; biocompatibility (SIRC corneal cells): good biocompatibility; biocompatibility (ARPE-19 retinal cells; ARPE-19 / ARPE retinal cells): good biocompatibility; toxicity (ARPE-19 retinal cells; concentrations 0.01-1 μM, incubated for 20 hours): caused no toxicity; cell viability following stimulation with LPS (J774 cells; LPS 10 μg/mL for 24 hours, 2-hour pretreatment): able to restore the cell viability; anti-inflammatory activity, rank order (J774 cells; macrophages subjected to inflammatory stress with LPS): calixarene loaded with curcumin>>calixarene>>curcumin alone; PDI [4]: 0.29; Z-average [4]: 44.3 nm; Potential ζ [7]: 24 mV
COc1cc(/C=C/C(=O)CC(=O)/C=C/c2ccc(O)c(OC)c2)ccc1O [curcumin, diferuloylmethane]	–	reduces significantly and in a dose-dependent manner	–	–	reduces significantly and in a dose-dependent manner	significantly decreased the histologic damage	most effectively determined the reduction of proteins	–	degradation ([2]; in 30 min, 0.1 M PBS and serum-free medium): 80-90% and 90%
Silibinin [reference compound]	individually able to protect from the redox status alteration	–	reduces the release of LDH	an effect not observed	–	decreased but not significant ocular inflammation	a trend but not significant	increases the expression levels of cathepsin D	inhibition of apoptosis induced by oxidative damage (PARP-1 protein): reduces the apoptotic process, however with less efficiency than the conjugated carrier; solubility in water [8]: 430 µg/mL
